Experimental data taken from PubChem BioAssay AID1963959 (Molecular Pharmacology Branch, DTP, NCI, 2024).

Test system: T-47D spheroids with HUVEC/MSC, viability
Assay: Anticancer human tumor T-47D cell line growth inhibition [PI3K];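 further: spheroids exposed to agents for seven days before reading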;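 on viability, T/C: percent of DMSO vehicle control luminescence so 100% = untreated growth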
Details: for IC50: curve of first compound; for viability, T/C: stronger effect = lower value
Excerpt: Combinatorial screen of targeted agents with the PI3K inhibitors inavolisib, alpelisib, duvelisib, and copanlisib in multi-cell type tumor spheroids
A high-throughput screen of multi-cell type tumor spheroids was designed to identify active combinations of targeted small molecules and PI3K pathway inhibitors. Complex spheroids include a stromal component modeled by human endothelial cells (HUVEC) and fibroblasts modeled by human mesenchymal stem cells (MSCs). The concentration ranges selected for each drug and investigational agent were based upon clinically achievable concentrations if the clinical Cmax of the agent was known.
Compounds. The drugs and investigational agents: inavolisib (NSC800729), alpelisib (NSC765974), duvelisib (NSC772469), copanlisib (NSC816437), ipatasertib (NSC767898), afuresertib (NSC778305), talazoparib (NSC767125), sapanisertib (NSC764658), selumetinib (NSC741078), tovorafenib (DAY101, NSC766906), vemurafenib (NSC761431), ravoxertinib (NSC781343), sotorasib (NSC818433), MRTX1133 (NSC 836407), abemaciclib (NSC 768073), palbociclib (NSC758247), venetoclax (NSC 766270), SY5609 (NSC837396), enzalutamide (NSC755605), and darolutamide (NSC825331), were obtained from the National Cancer Institute (NCI) Developmental Therapeutics Program Chemical Repository. The FDA-approved anticancer drug set is available from the NCI Developmental Therapeutics Program. […] The stock solutions were prepared in dimethyl sulfoxide (DMSO, Sigma-Aldrich, St. Louis, MO, cat. D2650) at 800-fold the tested concentration and stored at -70 degrees C prior to their use. All drugs and investigational agents were tested over a range starting from a high concentration at or near the clinical Cmax and decreasing in half-log increments. If the clinical Cmax for an agent had not been determined, the highest concentration tested was 10 microM.
Cell Culture. All cells were maintained in an incubator at 37 degrees C and 5% CO2 with 95% humidity. The PDC lines were cultured according to standard operating procedures established by the NCI PDMR (https://pdmr.cancer.gov/sops/default.htm). All PDCs were thawed and cultured in Matrigel-coated flasks prepared with a working solution of 1X Ham's F-12 nutrient mix, without supplementation (Invitrogen, Waltham, MA, cat. 11765054), 100 U/mL penicillin-streptomycin (Invitrogen, cat. 15140122), and 2.5% Matrigel (Corning Inc., Corning, NY, cat. 354248) for the first three passages. The 354836-022-R-J1-PDC, 475296-252-R-J1-PDC, and 997726-040-R-J2-PDC lines were cultured in 6A media, which includes advanced DMEM/F-12 (Thermo Fisher Scientific, cat. 12634028), 10 mM HEPES (Thermo Fisher Scientific, cat. 15630080), 1X GlutaMAX supplement (Thermo Fisher Scientific, cat. 35050061), 0.1 mg/mL primocin (InvivoGen, San Diego, CA, cat. ant-pm-2), 10% defined fetal bovine serum, heat inactivated (HyClone Laboratories Inc., Logan, UT, cat. SH30070.03HI), 50% L-WRN conditioned media (ATCC, cat. CRL-3276), 1.25 mM N-Acetyl-L-cysteine (Sigma-Aldrich, cat. A9165), 10 mM nicotinamide (Sigma-Aldrich, cat. N0636), 1X B-27 supplement (Thermo Fisher Scientific, cat. 17504044), 1X N-2 supplement (Thermo Fisher Scientific, cat. 17502048), and 10 microM Y-27632 dihydrochloride (Tocris Bioscience, Bristol, United Kingdom, cat. 1254). The 624824-186-R-J2-PDC line was cultured in 6C/Colon 1B media, which includes all 6A media components plus 50 ng/mL human EGF recombinant protein (Thermo Fisher Scientific, cat. PHG0311). […]

[1] = second compound 0.00316 µM, first compound 0.0316 µM
[2] = second compound 0.00316 µM, first compound 0.1 µM
[3] = second compound 0.00316 µM, first compound 0.316 µM
[4] = second compound 0.00316 µM, first compound 1 µM
[5] = second compound 0.01 µM, first compound 0.0316 µM
[6] = second compound 0.01 µM, first compound 0.1 µM
[7] = second compound 0.01 µM, first compound 0.316 µM
[8] = second compound 0.01 µM, first compound 1 µM
[9] = second compound 0.0316 µM, first compound 0.0316 µM
[10] = second compound 0.0316 µM, first compound 0.1 µM
[11] = second compound 0.0316 µM, first compound 0.316 µM
[12] = second compound 0.0316 µM, first compound 1 µM
[13] = second compound 0.1 µM, first compound 0.0316 µM
[14] = second compound 0.1 µM, first compound 0.1 µM
[15] = second compound 0.1 µM, first compound 0.316 µM
[16] = second compound 0.1 µM, first compound 1 µM
[17] = second compound 0.316 µM, first compound 0.0316 µM
[18] = second compound 0.316 µM, first compound 0.1 µM
[19] = second compound 0.316 µM, first compound 0.316 µM
[20] = second compound 0.316 µM, first compound 1 µM
[21] = second compound 1 µM, first compound 0.0316 µM
[22] = second compound 1 µM, first compound 0.1 µM
[23] = second compound 1 µM, first compound 0.316 µM
[24] = second compound 1 µM, first compound 1 µM
[25] = second compound 0.00316 µM, first compound 3.16 µM
[26] = second compound 0.00316 µM, first compound 10 µM
[27] = second compound 0.01 µM, first compound 3.16 µM
[28] = second compound 0.01 µM, first compound 10 µM
[29] = second compound 0.0316 µM, first compound 3.16 µM
[30] = second compound 0.0316 µM, first compound 10 µM
[31] = second compound 0.1 µM, first compound 3.16 µM
[32] = second compound 0.1 µM, first compound 10 µM
[33] = second compound 0.316 µM, first compound 3.16 µM
[34] = second compound 0.316 µM, first compound 10 µM
[35] = second compound 1 µM, first compound 3.16 µM
[36] = second compound 1 µM, first compound 10 µM

CCN1CCN(Cc2ccc(Nc3ncc(F)c(-c4cc(F)c5nc(C)n(C(C)C)c5c4)n3)nc2)CC1 + CC(Nc1ccc2c(c1)OCCn1cc(N3C(=O)OCC3C(F)F)nc1-2)C(N)=O
IC50 (second compound 0.00316 µM): > 1000 nM
IC50 (second compound 0.01 µM): > 1000 nM
IC50 (second compound 0.0316 µM): > 1000 nM
IC50 (second compound 0.1 µM): > 1000 nM
IC50 (second compound 0.316 µM): 17.3 nM
IC50 (second compound 1 µM): < 3.16 nM
viability, T/C (second compound 0.00316 µM, first compound 0.00316 µM): 107%
viability, T/C (second compound 0.00316 µM, first compound 0.01 µM): 101%
viability, T/C [1]: 91%
viability, T/C [2]: 95.5%
viability, T/C [3]: 91.6%
viability, T/C [4]: 91.2%
viability, T/C (second compound 0.01 µM, first compound 0.00316 µM): 93%
viability, T/C (second compound 0.01 µM, first compound 0.01 µM): 101%
viability, T/C [5]: 94.4%
viability, T/C [6]: 86.2%
viability, T/C [7]: 76.5%
viability, T/C [8]: 82.5%
viability, T/C (second compound 0.0316 µM, first compound 0.00316 µM): 88.2%
viability, T/C (second compound 0.0316 µM, first compound 0.01 µM): 98%
viability, T/C [9]: 81.8%
viability, T/C [10]: 90%
viability, T/C [11]: 72.6%
viability, T/C [12]: 91%
viability, T/C (second compound 0.1 µM, first compound 0.00316 µM): 83.3%
viability, T/C (second compound 0.1 µM, first compound 0.01 µM): 90.6%
viability, T/C [13]: 71.5%
viability, T/C [14]: 58.9%
viability, T/C [15]: 56.5%
viability, T/C [16]: 73.8%
viability, T/C (second compound 0.316 µM, first compound 0.00316 µM): 58.2%
viability, T/C (second compound 0.316 µM, first compound 0.01 µM): 49.9%
viability, T/C [17]: 51.2%
viability, T/C [18]: 48.8%
viability, T/C [19]: 47%
viability, T/C [20]: 49.1%
viability, T/C (second compound 1 µM, first compound 0.00316 µM): 49.7%
viability, T/C (second compound 1 µM, first compound 0.01 µM): 36.8%
viability, T/C [21]: 35.7%
viability, T/C [22]: 32.5%
viability, T/C [23]: 37.2%
viability, T/C [24]: 44.8%

C[C@@H](NC(=O)c1ncnc(N)c1Cl)c1ncc(C(=O)Nc2cc(C(F)(F)F)c(Cl)cn2)s1 + COc1c(OCCCN2CCOCC2)ccc2c3n(c(=NC(=O)c4cnc(N)nc4)nc12)CCN3
IC50 (second compound 0.00316 µM): > 10000 nM
IC50 (second compound 0.01 µM): > 10000 nM
IC50 (second compound 0.0316 µM): > 10000 nM
IC50 (second compound 0.1 µM): < 31.6 nM
IC50 (second compound 0.316 µM): < 31.6 nM
IC50 (second compound 1 µM): < 31.6 nM
viability, T/C [1]: 92.7%
viability, T/C [2]: 82.9%
viability, T/C [3]: 97.8%
viability, T/C [4]: 106%
viability, T/C [25]: 77.7%
viability, T/C [26]: 86.6%
viability, T/C [5]: 93.5%
viability, T/C [6]: 90.5%
viability, T/C [7]: 76.2%
viability, T/C [8]: 78.5%
viability, T/C [27]: 86.1%
viability, T/C [28]: 85%
viability, T/C [9]: 66.1%
viability, T/C [10]: 71.2%
viability, T/C [11]: 55.1%
viability, T/C [12]: 61.7%
viability, T/C [29]: 65.4%
viability, T/C [30]: 68.9%
viability, T/C [13]: 40.3%
viability, T/C [14]: 32.9%
viability, T/C [15]: 35.5%
viability, T/C [16]: 38.4%
viability, T/C [31]: 48%
viability, T/C [32]: 38.3%
viability, T/C [17]: 11.7%
viability, T/C [18]: 12.6%
viability, T/C [19]: 17.4%
viability, T/C [20]: 16%
viability, T/C [33]: 14.6%
viability, T/C [34]: 20.3%
viability, T/C [21]: 4.16%
viability, T/C [22]: 8.23%
viability, T/C [23]: 6.02%
viability, T/C [24]: 4.08%
viability, T/C [35]: 4.3%
viability, T/C [36]: 7.55%

CC1(C)CCC(Nc2ncc(C(F)(F)F)c(-c3c[nH]c4c(P(C)(C)=O)c(C#N)ccc34)n2)CN1 (stereo unspecified) + COc1c(OCCCN2CCOCC2)ccc2c3n(c(=NC(=O)c4cnc(N)nc4)nc12)CCN3
IC50 (second compound 0.00316 µM): > 10000 nM
IC50 (second compound 0.01 µM): > 10000 nM
IC50 (second compound 0.0316 µM): < 31.6 nM
IC50 (second compound 0.1 µM): < 31.6 nM
IC50 (second compound 0.316 µM): < 31.6 nM
IC50 (second compound 1 µM): < 31.6 nM
viability, T/C [1]: 70.8%
viability, T/C [2]: 60.4%
viability, T/C [3]: 68%
viability, T/C [4]: 74.5%
viability, T/C [25]: 77.7%
viability, T/C [26]: 57.5%
viability, T/C [5]: 67.6%
viability, T/C [6]: 62.4%
viability, T/C [7]: 55.2%
viability, T/C [8]: 50.2%
viability, T/C [27]: 73.8%
viability, T/C [28]: 46%
viability, T/C [9]: 44.3%
viability, T/C [10]: 42.6%
viability, T/C [11]: 42.8%
viability, T/C [12]: 38.8%
viability, T/C [29]: 46.9%
viability, T/C [30]: 14.1%
viability, T/C [13]: 28%
viability, T/C [14]: 33.8%
viability, T/C [15]: 28.8%
viability, T/C [16]: 29.8%
viability, T/C [31]: 26.5%
viability, T/C [32]: 8.25%
viability, T/C [17]: 20%
viability, T/C [18]: 24.4%
viability, T/C [19]: 15.6%
viability, T/C [20]: 19.1%
viability, T/C [33]: 17.4%
viability, T/C [34]: 3.95%
viability, T/C [21]: 8.6%
viability, T/C [22]: 12.8%
viability, T/C [23]: 8.27%
viability, T/C [24]: 7.59%
viability, T/C [35]: 10.4%
viability, T/C [36]: 2.66%
